How the values were obtained:
[1] = test system: NARF2 cells; test: Rescue of FMN2 depletion by co-transfection of siRNAs, Western blot (FIG. 14); assay type: cell-based, human; details: co-transfection of both PA28γ siRNA and Skp2 siRNA with FMN2 siRNA, with/without p14ARF induction
Description: (§1) siRNA experiments. siRNA duplex oligo ribonucleotides were synthesised by MWG and transfected using Interferin (Polyplus) as per manufacturers instruction. In brief, cells were plated the day before transfection at the concentration of 2×10^5 cells per well in 6 well plates. The following day, cells were transfected with the final concentration of 5 nM of siRNA oligoribonucleotides in fresh media, final volume of 2.2 ml. Cells were incubated for a further 48 hours prior to harvesting. IPTG was added for 24 hours unless otherwise stated. siRNA sequences are described here (Control: 5′-CAGUCGCGUUUGCGACUGG-3′, FMN2-5′-GUAUACCAGGUCUCCUCAA-3′, PA28γ-5′-GAAUCAAUAUGUCACUCUA-3′, Skp2-5′-ACUCAAGUCCAGCCAUAAG-3′).).
FIG. 14. […] Detection of protein levels for endogenous FMN2, Skp2, PA28G, p21, p14ARF and Actin following transfection of NARF2 cells using either siRNAs for FMN2 (see FIG. 15A for location of siRNA target sequence), PA28γ, Skp2 and control (Control) with/without p14ARF induction (+/blank). An equivalent amount of NARF2 extract was loaded for each lane and the proteins separated by SDS PAGE, electroblotted and probed both with a monoclonal anti-PA28γ and polyclonal anti-FMN2, anti-Skp2, anti-p21, anti-p14ARF and with anti-Actin as a loading control.

[2] = test system: NARF2 cells; test: siRNA knock-down in NARF2 cells, protein levels by blot (FIG. 10); assay type: cell-based, human; details: 5 nM siRNA, 48 hours, with or without 24 hours IPTG
Description: FIG. 10. siRNA approach for FMN2. NARF2 cells were treated with Control, DNA-PK, or FMN2 siRNA and harvested 48 hours with or without 24 hours IPTG induction.
siRNA duplex oligonucleotides were synthesised by MWG and transfected using Interferin (Polyplus) as per manufacturers instruction. In brief, cells were plated the day before transfection at the concentration of 2×10^5 cells per well in 6 well plates. The following day, cells were transfected with the final concentration of 5 nM of siRNA oligonucleotides in fresh media, final volume of 2.2 ml. Cells were incubated for additional 48 hours prior to harvesting. IPTG was added for 24 hours unless otherwise stated. siRNA sequences were described here (Control: CAGUCGCGUUUGCGACUGG, FMN2-GUAUACCAGGUCUCCUCAA). MG132 was purchased from Merck Chemicals and used at the final concentration of 50 μM.
To analyse the function of the FMN2 protein in cells, we designed five siRNAs to suppress FMN2 expression. […] (FIG. 10a). […] In contrast, siRNA knock-down of DNA-PK causes a decrease in the levels of both puma and p21 (FIG. 10b).
as §1

Substance | rescue of p21 inactivation following FMN2 depletion [1] | FMN2 expression after siRNA [2] | effect on Hdm2 [2] | effect on p53 [2] | p21 level [2] | puma level [2]
5′-ACUCAAGUCCAGCCAUAAG-3′ [Skp2 siRNA] | partially rescued | – | – | – | – | –
5′-GAAUCAAUAUGUCACUCUA-3′ [PA28γ siRNA] | partially rescued | – | – | – | – | –
5′-GUAUACCAGGUCUCCUCAA-3′ [FMN2 siRNA] | – | successful in suppressing FMN2 expression | didn't see any effect | didn't see any effect | severely reduced | does not affect puma levels
